The text below walks through data of PubChem BioAssay AID330 (DTP/NCI, 2004).

This assay has as its system P388 leukemia ip, CD2F1 mice, survival T/C. Description: NCI In Vivo Anticancer Drug Screen. Data for tumor model P388 Leukemia (intraperitoneal) in CD2F1 (CDF1) mice. To be noted: endpoint: median survival time, higher = longer survival. The gist of the method: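 Mice carrying the transplanted tumor received test compound or vehicle. Survival was recorded in each group, and the value is the treated-group measurement divided by that of the vehicle-treated control group.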

Where [1] appears, read: dose: 100.0 mg/kg/injection, schedule: Q04DX003 (ip), vehicle: saline.
The mark [2] stands for this setting: dose: 200.0 mg/kg/injection, schedule: Q04DX003 (ip), vehicle: saline.
The mark [3] stands for this setting: dose: 400.0 mg/kg/injection, schedule: Q04DX003 (ip), vehicle: saline.
Where [4] appears, read: dose: 50.0 mg/kg/injection, schedule: Q01DX005 (ip), vehicle: Klucel (hydroxypropylcellulose) (HPC).
The mark [5] stands for this setting: dose: 100.0 mg/kg/injection, schedule: Q01DX005 (ip), vehicle: Klucel (hydroxypropylcellulose) (HPC).
[6] abbreviates: dose: 200.0 mg/kg/injection, schedule: Q01DX005 (ip), vehicle: Klucel (hydroxypropylcellulose) (HPC).
[7] abbreviates: dose: 50.0 mg/kg/injection, schedule: Q01DX009 (ip), vehicle: saline with Tween-80.
[8] abbreviates: dose: 100.0 mg/kg/injection, schedule: Q01DX009 (ip), vehicle: saline with Tween-80.
[9] abbreviates: dose: 200.0 mg/kg/injection, schedule: Q01DX009 (ip), vehicle: saline with Tween-80.
[10] abbreviates: dose: 12.5 mg/kg/injection, schedule: Q01DX005 (ip), vehicle: saline.
Setting [11] is: dose: 25.0 mg/kg/injection, schedule: Q01DX005 (ip), vehicle: saline.
Setting [12] is: dose: 50.0 mg/kg/injection, schedule: Q01DX005 (ip), vehicle: saline.
The mark [13] stands for this setting: dose: 25.0 mg/kg/injection, schedule: Q01DX009 (ip), vehicle: saline with Tween-80.

The structures appear in SMILES notation. Values joined by “and” are separate entries in the source; they are usually repeats but may differ in a detail not shown here. Equal entries are not always repeated. Inconclusive results and toxic doses are left out.

In the case of `O=P1(NCCCNP2(=O)OC(CCl)=NC2c2ccccc2Cl)OC(CCl)=NC1c1ccccc1Cl` (configuration not stated), the T/C reads like this: (dose: 60.0 mg/kg/injection, schedule: Q01DX005 (ip), vehicle: saline) 93 % of control; (dose: 120.0 mg/kg/injection, schedule: Q01DX005 (ip), vehicle: saline) 98 % of control; (dose: 240.0 mg/kg/injection, schedule: Q01DX005 (ip), vehicle: saline) 103 % of control.
On to `Cn1nnnc1CC(=O)O`, for which the T/C was 99 % of control under setting [1], 108 % of control under setting [2] and 103 % of control under setting [3].
Take `C/C(=C\c1ccc([N+](=O)[O-])cc1)C(=O)N1CCCCC1`: the T/C runs as follows: under setting [4], 105 % of control; under setting [5], 96 % of control; under setting [6], 96 % of control.
With `CCC1(CC)CC1C(=O)O` (configuration not stated), the T/C is 93 % of control under setting [4], 89 % of control under setting [5] and 89 % of control under setting [6].
In the case of `O=C(CN1CCCCC1)Nc1ccc(I)cc1`, the T/C under setting [7] is 104 % of control, the T/C under setting [8] was 107 % of control and the T/C under setting [9] is 114 % of control.
`CC(=O)NC(C=O)C(OC(C)C(=O)NC(C)C(=O)NC(CCC(N)=O)C(=O)O)C(OC1OC(CO)C(O)C(O)C1NC(C)=O)C(O)CO` (configuration not stated): the T/C runs as follows: (dose: 6.25 mg/kg/injection, schedule: Q01DX005 (ip), vehicle: saline) 111 % of control; under setting [10], 112 % of control; under setting [11], 112 % of control; under setting [12], 116 % of control.
In the case of `NC(N)=N/N=C1\C/C(=N\N=C(N)N)c2ccccc21`, the T/C by setting is: (dose: 6.25 mg/kg/injection, schedule: Q01DX009 (ip), vehicle: saline with Tween-80) 99 % of control; (dose: 12.5 mg/kg/injection, schedule: Q01DX009 (ip), vehicle: saline with Tween-80) 97 % of control; (dose: 25.0 mg/kg/injection, schedule: Q01DX001 (ip), vehicle: saline with Tween-80) 107 % of control; under setting [13], 91 % of control; (dose: 50.0 mg/kg/injection, schedule: Q01DX001 (ip), vehicle: saline with Tween-80) 100 % of control.
As for `COC1=C(C)C(=O)c2c(c(C=O)c(Cl)n2C)C1=O`, the T/C was 99 % of control (dose: 100.0 mg/kg/injection, schedule: Q01DX001 (ip), vehicle: Klucel (hydroxypropylcellulose) (HPC)) and 103 % of control (dose: 200.0 mg/kg/injection, schedule: Q01DX001 (ip), vehicle: Klucel (hydroxypropylcellulose) (HPC)).
Turning to `O=[N+]([O-])c1ccc(-c2c[s+]cs2)cc1`, the T/C runs as follows: (dose: 6.25 mg/kg/injection, schedule: Q01DX009 (ip), vehicle: distilled water + Tween-80) 101 % of control; (dose: 12.5 mg/kg/injection, schedule: Q01DX009 (ip), vehicle: distilled water + Tween-80) 101 % of control; (dose: 25.0 mg/kg/injection, schedule: Q01DX009 (ip), vehicle: distilled water + Tween-80) 108 % of control; (dose: 50.0 mg/kg/injection, schedule: Q01DX009 (ip), vehicle: distilled water + Tween-80) 95 % of control; (dose: 100.0 mg/kg/injection, schedule: Q01DX009 (ip), vehicle: distilled water + Tween-80) 104 % of control.
Turning to `COc1cc2c(c(OC)c1OC)-c1ccc(OC)c(=O)cc1[C@@H](NC(=O)CF)CC2`, the T/C (dose: 23.4 micrograms/kg/injection, schedule: Q01DX009 (ip), vehicle: saline) was 121 % of control; the T/C (dose: 93.7 micrograms/kg/injection, schedule: Q01DX009 (ip), vehicle: saline) is 152 % of control; the T/C (dose: 187.5 micrograms/kg/injection, schedule: Q01DX009 (ip), vehicle: saline) is 152 % of control; the T/C (dose: 250.0 micrograms/kg/injection, schedule: Q04DX003 (ip), vehicle: saline) was 163 % of control; the T/C (dose: 375.0 micrograms/kg/injection, schedule: Q01DX009 (ip), vehicle: saline) is 161 % of control; the T/C (dose: 500.0 micrograms/kg/injection, schedule: Q04DX003 (ip), vehicle: saline) is 204 % of control. The T/C (dose: 2000.0 micrograms/kg/injection, schedule: Q04DX003 (ip), vehicle: saline) was 122 % of control.
On to `N#Cc1ccc(N=NN2CCOC2)cc1`, for which the T/C (dose: 60.0 mg/kg/injection, schedule: Q01DX005 (ip), vehicle: saline with Tween-80) is 86 % of control; the T/C (dose: 120.0 mg/kg/injection, schedule: Q01DX005 (ip), vehicle: saline with Tween-80) was 100 % of control; the T/C (dose: 240.0 mg/kg/injection, schedule: Q01DX005 (ip), vehicle: saline with Tween-80) was 93 % of control.
`ClC1=NOC(c2ccccc2)C1` (configuration not stated): the T/C (dose: 6.25 mg/kg/injection, schedule: Q01DX005 (ip), vehicle: distilled water + Tween-80) is 110 % of control; the T/C (dose: 12.5 mg/kg/injection, schedule: Q01DX005 (ip), vehicle: distilled water + Tween-80) is 97 % of control; the T/C (dose: 25.0 mg/kg/injection, schedule: Q01DX005 (ip), vehicle: distilled water + Tween-80) is 100 % of control; the T/C (dose: 50.0 mg/kg/injection, schedule: Q01DX005 (ip), vehicle: distilled water + Tween-80) is 105 % of control and 107 % of control; the T/C (dose: 100.0 mg/kg/injection, schedule: Q01DX005 (ip), vehicle: distilled water + Tween-80) is 99 % of control; the T/C (dose: 200.0 mg/kg/injection, schedule: Q01DX005 (ip), vehicle: distilled water + Tween-80) was 108 % of control.
Consider `c1ccc(N=NC2=NN(c3ccccc3)CS2)cc1`, for which the T/C under setting [13] was 105 % of control and 106 % of control; the T/C under setting [7] is 101 % of control and 102 % of control; the T/C under setting [8] was 101 % of control and 102 % of control; the T/C under setting [9] was 101 % of control and 106 % of control.
Turning to `CCCCCCCCCCCCCCCCCCOC(=O)Cc1ccc(N(CCCl)CCCl)cc1`, the T/C reads like this: (dose: 45.0 mg/kg/injection, schedule: Q01DX009 (ip), vehicle: saline with Tween-80) 168 % of control; (dose: 90.0 mg/kg/injection, schedule: Q01DX009 (ip), vehicle: saline with Tween-80) 163 % of control; (dose: 180.0 mg/kg/injection, schedule: Q01DX009 (ip), vehicle: saline with Tween-80) 150 % of control.
For the molecule `C1CNC(N2CCN(C3=NCCN3)CC2)=N1`, the T/C reads like this: under setting [4], 104 % of control; under setting [5], 100 % of control.
Regarding `Clc1ccc(CSc2nnc3c(n2)[nH]c2ccccc23)cc1`, the T/C is, setting by setting: under setting [4], 100 % of control; under setting [5], 107 % of control; under setting [6], 98 % of control.
On to `CCn1c2ccccc2c2cc(N=Nc3ccc(O)c4ccccc34)ccc21`, for which the T/C by setting is: (dose: 50.0 mg/kg/injection, schedule: Q01DX009 (ip), vehicle: Klucel (hydroxypropylcellulose) (HPC)) 105 % of control; (dose: 100.0 mg/kg/injection, schedule: Q01DX009 (ip), vehicle: Klucel (hydroxypropylcellulose) (HPC)) 101 % of control and 106 % of control; (dose: 200.0 mg/kg/injection, schedule: Q01DX009 (ip), vehicle: Klucel (hydroxypropylcellulose) (HPC)) 100 % of control and 102 % of control.
Regarding `CCCCCCC(=O)/C=C/c1cc(OC)cc(OC)c1`, the T/C was 96 % of control under setting [7], 103 % of control under setting [8] and 91 % of control under setting [9].
As to `Cc1cc2nc3ccc(N=Nc4ccc(N(C)C)cc4)cc3n(-c3ccccc3)c-2cc1=N`, the T/C (dose: 0.39 mg/kg/injection, schedule: Q01DX009 (ip), vehicle: saline) was 113 % of control and 118 % of control; the T/C (dose: 0.78 mg/kg/injection, schedule: Q01DX009 (ip), vehicle: saline) was 119 % of control.
With `CCOCCOCCOC(C)OC(C)Cc1ccc2c(c1)OCO2` (configuration not stated), the T/C reads like this: (dose: 50.0 mg/kg/injection, schedule: Q01DX005 (ip), vehicle: saline with Tween-80) 106 % of control; (dose: 100.0 mg/kg/injection, schedule: Q01DX005 (ip), vehicle: saline with Tween-80) 95 % of control; (dose: 200.0 mg/kg/injection, schedule: Q01DX005 (ip), vehicle: saline with Tween-80) 112 % of control.
Regarding `NC(CCC(=O)NC(CSSCC(NC(=O)CCC(N)C(=O)O)C(=O)O)C(=O)O)C(=O)O` (configuration not stated), the T/C by setting is: under setting [10], 94 % of control; under setting [11], 99 % of control; under setting [12], 99 % of control.
As for `N#CC(C#N)C(=O)c1ccccc1`, the T/C is, setting by setting: (dose: 50.0 mg/kg/injection, schedule: Q04DX003 (ip), vehicle: saline) 103 % of control; under setting [1], 102 % of control; under setting [2], 95 % of control; under setting [3], 95 % of control.
